Several values for one entry are separate records, joined by “and”; a condition that tells them apart may be missing. Identical values can stand only once.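 Following 48 hours of exposure in 96-well plates, responses at five concentrations were used to interpolate endpoints linearly. At the GI50, growth is halved. TGI is the concentration that stops growth completely.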
Legend:
Assay in all cases: NCI-60 cell line screen, 48 h
NCI/ADR-RES ovarian = tested on: NCI/ADR-RES ovarian
SK-MEL-2 melanoma = tested on: SK-MEL-2 melanoma
A498 renal = tested on: A498 renal
HCT-15 colon = tested on: HCT-15 colon
SN12C renal = tested on: SN12C renal
TK-10 renal = tested on: TK-10 renal
MOLT-4 leukemia = tested on: MOLT-4 leukemia
HOP-62 NSCLC = tested on: HOP-62 NSCLC
LXFL 529 NSCLC = tested on: LXFL 529 NSCLC

Row | SMILES | GI50 (NCI/ADR-RES ovarian) [µM] | TGI (NCI/ADR-RES ovarian) | GI50 (SK-MEL-2 melanoma) [µM] | TGI (SK-MEL-2 melanoma) [µM] | GI50 (A498 renal) [µM] | TGI (A498 renal) | GI50 (HCT-15 colon) [µM] | TGI (HCT-15 colon) | GI50 (SN12C renal) [µM] | TGI (SN12C renal) | GI50 (TK-10 renal) [µM] | TGI (TK-10 renal) | GI50 (MOLT-4 leukemia) [µM] | TGI (MOLT-4 leukemia) [µM] | GI50 (HOP-62 NSCLC) [µM] | TGI (HOP-62 NSCLC) | TGI (LXFL 529 NSCLC) [µM] | GI50 (LXFL 529 NSCLC) [µM]
1 | Cc1ccc(S(=O)(=O)OCC(=O)Nc2ccc(C(=O)O)c(O)c2)cc1 | 32.2 | 162 µM | 50.2 | 203 | 36.4 | 105 µM | 38.8 | 155 µM | 27.9 | 105 µM | 207 | 464 µM | 16.5 | 87.9 | 32.6 | 86 µM | – | –
2 | CC(=O)OC1CC2C(C)(C)CCC[C@]2(C)C2=C1C(O)=C(C(C)C)C(=O)C2=O (stereo not given in full) | 0.817 | 5.13 µM | 0.356 | 1.39 | 0.402 | 1.79 µM | 0.351 | 2.04 µM | 0.801 | 7.58 µM | 1.43 | 12.8 µM | 1.4 | > 30.8 | 2.13 | 4.47 µM | – | –
3 | COc1ccc(C2=NN(C=O)C(c3ccc(OS(=O)(=O)c4ccc(C)cc4)c(OC)c3)C2)cc1 (stereo not given) | 4.5 | > 100 µM | 3.52 | 38.6 | 1.81 | > 100 µM | 4.19 | > 100 µM | 65.9 | > 100 µM | > 100 | > 100 µM | 5.23 | > 100 | 9.47 | 74 µM | – | –
4 | Cc1cc(I)cc(CNCCN2CCOCC2)c1O | 12.5 | > 100 µM | > 100 | > 100 | > 100 | > 100 µM | > 100 | > 100 µM | > 100 | > 100 µM | > 100 | > 100 µM | > 100 | > 100 | 29.4 | > 100 µM | – | –
5 | O=C(CN1CCN(CCN2C(=O)c3cccc4cccc(c34)C2=O)CC1)Nc1ccc2ncsc2c1 | 6.2 | 53.8 µM | 6.49 | 23.6 | 22.3 | > 100 µM | 5.05 | 20.1 µM | 5.5 | 19.9 µM | 10.5 | 23.7 µM | 2.87 | 15.3 | 5.69 | 23.4 µM | – | –
6 | O=C(COc1cccc(/C=C2\COc3ccccc3C2=O)c1)c1ccccc1 | 3.26 | 11.8 µM | 2.75 | 9.68 | 0.266 | 6.78 µM | 1.85 | 4.45 µM | 4.7 | 19.8 µM | 3.6 | 11.2 µM | 3.26 | 11.1 | 5.24 | 18.2 µM | – | –
7 | C=C[C@H]1CN2CCc3c([nH]c4c([C@@H]5CCCN5C)c(O)ccc34)[C@@H]2C[C@@H]1C[C@H]1c2[nH]c3ccccc3c2CCN1C | – | 3.34 µM and 3.52 µM | – | 3.37 | – | 3.11 µM and 3.44 µM | – | 2.49 µM and 2.9 µM | – | 3.13 µM and 3.39 µM | 0.031 | 0.993 µM and 2.98 µM and 3.44 µM | 0.412 | – | – | 2.87 µM and 2.74 µM and 2.45 µM | – | –
8 | O=C(CCC(=O)Nc1ccc(Cl)cc1)CC(=O)c1ccc2ccccc2c1 | – | – | – | > 100 | – | > 100 µM | – | > 100 µM | – | > 100 µM | – | > 100 µM | – | > 100 | – | > 100 µM | > 100 | –
9 | CN(C)CCCOc1ccc(/C=C2/CCC/C(=C/c3ccc(OCCCN(C)C)cc3)C2=O)cc1 | – | – | – | 3.69 | – | 3.65 µM | – | 2.5 µM | – | 2.96 µM | – | 5.33 µM | – | 2.5 | – | 4.49 µM | 7.12 | –
10 | CC[O-].CC[O-].COc1ccc(C(=O)[CH-]C(C)=O)cc1OC.COc1ccc(C(=O)[CH-]C(C)=O)cc1OC.[Ti+4] | – | – | 78.3 | > 100 | 29.6 | 75.2 µM | 90.1 | > 100 µM | > 100 | > 100 µM | – | – | 35.4 | > 100 | 46.2 | > 100 µM | > 100 | 38.7
11 | CCC(CC)c1cc(N[C@H]2CC[C@H](N)C2)n2nccc2n1 | 6.41 | > 100 µM | 1.64 | 3.64 | 2.53 | > 100 µM | 2.23 | > 100 µM | 0.691 | > 100 µM | 3.58 | > 100 µM | 1.36 | > 100 | 0.99 | > 100 µM | – | –
12 | NS(=O)(=O)c1ccc(N=Nc2c(O)[nH]c3ccc(C(=O)NCCc4cnc[nH]4)cc23)cc1 | > 25 | > 25 µM | > 25 | > 25 | > 25 | > 25 µM | > 25 | > 25 µM | > 25 | > 25 µM | > 25 | > 25 µM | > 25 | > 25 | > 25 | > 25 µM | – | –
13 | Cc1cc2nc3c(=O)[nH]c(=O)nc-3n(CC(O)C(O)C(O)CO)c2cc1N (stereo not given) | – | – | – | > 100 | – | > 100 µM | – | > 100 µM | – | > 100 µM | – | > 100 µM | – | > 100 | – | – | > 100 | –
14 | NC(=O)c1cc(I)ccc1NC(=O)/C=C/c1ccccc1Cl | 0.506 | 4.65 µM | 0.628 | 30.1 | 0.483 | 8.01 µM | 0.657 | > 68.3 µM | 1.32 | 36.7 µM | 2.48 | – | 0.765 | – | 4.9 | 33.5 µM | – | –
15 | CCNC(=O)Oc1ccc(/C(=C(\C)c2ccc(Cl)cc2)c2ccc(OCCN(CC)CC)cc2)cc1 | 6.8 | 22.7 µM | 5.01 | 17.6 | 14.3 | 29.6 µM | 2.21 | 7.04 µM | 4.42 | 16.1 µM | 17 | 31.8 µM | 3.07 | 11 | 4.35 | 16.4 µM | – | –
16 | CON=C1C[C@]2(C[C@@H]3C[C@@H](C/C=C(\C)C[C@@H](C)/C=C/C=C4\CO[C@@H]5[C@H](O)C(C)=C[C@@H](C(=O)O3)[C@]45O)O2)O[C@H](/C(C)=C/C(C)C)[C@H]1C | 14.4 | 29 µM | 15.4 | 32.5 | 10.5 | 22.9 µM | 14.9 | 30.9 µM | 14 | 28.3 µM | 17.8 | 33.4 µM | 3.02 | 8.53 | 15.5 | 29 µM | – | –
